Experimental data published in US8629273B2, “Diazinylpyrazolyl compounds” (Bayer Intellectual Property GmbH, priority 2009, dated 2014).

Columns and labels:
Boophilus microplus = Boophilus microplus test (BOOPMI injection); type: in vivo; details: 20 μg/animal, injected into the abdomen, after 7 days
Method: Solvent: Dimethyl Sulphoxide To produce a suitable preparation of active compound, 10 mg of active compound are mixed with 0.5 ml of solvent, and the concentrate is diluted with water to the desired concentration. The active compound solution is injected into the abdomen (Boophilus microplus) and the animals are transferred into dishes and stored in a climatized room. The activity is monitored for deposition of fertile eggs. After 7 days, the activity in % is determined. 100% means that none of the ticks has laid fertile eggs.

[1] = logP by HPLC on reversed-phase columns (C 18), EU Guideline 79/831 Annex V.A8; type: physicochemical; details: pH 7.8, 0.001 molar aqueous ammonium bicarbonate and acetonitrile; for logP: ** LC-MS in the neutral range
[2] = tested on: Boophilus microplus strain Parkhurst (SP-resistant); experiment: Boophilus microplus test (DIP); type: in vivo; details: 100 ppm
Method: Test animals: adult fed females of the Boophilus microplus strain Parkhurst (SP-resistant)
Solvent: Dimethyl sulphoxide
10 mg of active compound are dissolved in 0.5 ml of dimethyl sulphoxide. To produce a suitable formulation, the active compound solution is diluted with water to the particular desired concentration. This active compound preparation is pipetted into tubes. 8-10 ticks are transferred into a further tube provided with holes. The tube is dipped into the active compound preparation, with all ticks being wetted completely. After the liquid has run off, the ticks are transferred to filter discs in plastic dishes and kept in a climatized room. After the desired period of time, the activity is checked for deposition of fertile eggs. Eggs whose fertility is not visible from the outside are kept in glass tubes in a climatized cupboard under the larvae have hatched. An activity of 100% means that no tick has laid fertile eggs.

Lucilia cuprina larvae = experiment: Lucilia cuprina test (LUCICU); type: in vivo; details: 100 ppm, treated horse meat, after 2 days
Method: Solvent: Dimethyl Sulphoxide To produce a suitable preparation of active compound, 10 mg of active compound are mixed with 0.5 ml of dimethyl sulphoxide, and the concentrate is diluted with water to the desired concentration. Containers containing horse meat treated with the active compound preparation of the desired concentration are populated with Lucilia cuprina larvae. After 2 days, the kill in % is determined. 100% means that all larvae have been killed; 0% means that none of the larvae have been killed.

Ctenocephalides felis = Ctenocephalides felis oral (CTECFE); type: in vivo; details: 100 ppm in citrated cattle blood, after 2 days
Method: Solvent: 1 part by weight of dimethyl sulphoxide To produce a suitable preparation of active compound, 10 mg of active compound are mixed with 0.5 ml of dimethyl sulphoxide. One part of the concentrate is diluted with citrated cattle blood, and the desired concentration is prepared. 20 unfed adult fleas (Ctenocephalides felis) are placed into a chamber whose top and bottom ends are closed with gauze. A metal cylinder whose bottom end is closed with parafilm is placed onto the chamber. The cylinder contains the blood/active compound preparation, which can be taken up by the fleas through the parafilm membrane. After 2 days, the kill in % is determined. 100% means that all fleas have been killed; 0% means that none of the fleas have been killed.

[3] = tested on: caterpillars of the army worm (Spodoptera frugiperda); experiment: Spodoptera frugiperda test (SPODFR spray treatment); type: in vivo; details: 100 g/ha, after 7 days
Method: Solvents: 78.0 parts by weight of acetone • • 1.5 parts by weight of dimethyl formamide Emulsifier: 0.5 part by weight of alkylaryl polyglycol ether To produce a suitable preparation of active compound, 1 part by weight of active compound is mixed with the stated amounts of solvent and emulsifier, and the concentrate is diluted with emulsifier-containing water to the desired concentration. Discs of maize leaves (Zea mays) are sprayed with an active compound preparation of the desired concentration and, after drying, populated with caterpillars of the army worm (Spodoptera frugiperda). After 7 days, the activity in % is determined. 100% means that all caterpillars have been killed; 0% means that none of the caterpillars have been killed. The test was carried out and evaluated as described in Example B.5.

[4] = tested on: larvae of the mustard beetle (Phaedon cochleariae); experiment: Phaedon test (PHAECO spray treatment); type: in vivo; details: 100 g/ha, after 7 days
Method: Solvents: 78.0 parts by weight of acetone • • 1.5 parts by weight of dimethyl formamide Emulsifier: 0.5 part by weight of alkylaryl polyglycol ether To produce a suitable preparation of active compound, 1 part by weight of active compound is mixed with the stated amounts of solvent and emulsifier, and the concentrate is diluted with emulsifier-containing water to the desired concentration. Discs of Chinese cabbage leaves (Brassica pekinensis) are sprayed with an active compound preparation of the desired concentration and, after drying, populated with larvae of the mustard beetle (Phaedon cochleariae). After 7 days, the activity in % is determined. 100% means that all beetle larvae have been killed; 0% means that none of the beetle larvae have been killed. The test was carried out and evaluated as described in Example B.4.

adult Musca domestica = experiment: Musca domestica test (MUSCDO); type: in vivo; details: treated sponge
Method: Solvent: Dimethyl sulphoxide To prepare a suitable preparation of active compound, 10 mg of active component are mixed with 0.5 ml of dimethyl sulphoxide, and the concentrate is diluted with water to the desired concentration. Vessels containing a sponge which had been treated with the active compound preparation of the desired concentration are populated with adult Musca domestica. After the desired period of time, the kill in % is determined. 100% means that all flies have been killed; 0% means that none of the flies have been killed.

SMILES | activity (no deposition of fertile eggs) (Boophilus microplus) [%] | logP [1] | activity (no deposition of fertile eggs) [2] [%] | kill (Lucilia cuprina larvae) [%] | kill (Ctenocephalides felis) [%] | activity (caterpillars killed) [3] [%] | activity (beetle larvae killed) [4] [%] | kill (adult Musca domestica; 100 ppm) [%] | kill (adult Musca domestica; 20 ppm) [%] | chromatographic logP ([1]; reversed-phase HPLC column (C 18), pH 7.8, ** LC-MS in the neutral range)
COc1ccc(C=Nc2c(-c3cc(Cl)cc(C(F)(F)F)c3)c(C(F)(F)F)nn2-c2nccnc2OC)cc1 [Example 2-8] | 100 | 5.48** | 100 | 100 | 95 | – | – | – | – | –
COc1cc(C=Nc2c(-c3cc(Cl)c4c(c3)OCO4)c(C(F)(F)C(F)F)nn2-c2ncccn2)cc(OC)c1OC [Example 1-30] | 100 | 3.72** | 100 | 100 | 100 | 100 | 100 | – | – | –
COc1nccnc1-n1nc(C(F)(F)C(F)F)c(-c2cc(Cl)c3c(c2)OCO3)c1N=Cc1ccccc1 [Example 2-13] | 100 | 4.48** | 100 | 100 | 100 | – | – | 80 | – | –
COc1cc(C=Nc2c(-c3cc(Cl)cc(C(F)(F)F)c3)c(C(F)(F)C(F)F)nn2-c2nccnc2OC)cc(OC)c1OC [Example 2-17] | 100 | 5.12** | 100 | 100 | – | – | – | 100 | – | –
FC(F)C(F)(F)c1nn(-c2ncccn2)c(N=Cc2ccccc2)c1-c1cc(Cl)c2c(c1)OCO2 [Example 1-24] | 100 | 3.9** | 100 | 100 | 100 | 100 | 100 | 80 | – | –
FC(F)(F)c1nn(-c2ncccn2)c(N=Cc2ccc(Cl)cc2)c1-c1cc(Cl)c2c(c1)OCO2 [Example 1-25] | 100 | 4.51** | 100 | 100 | 100 | 100 | 100 | – | 100 | –
COc1cc(C=Nc2c(-c3cc(Cl)c4c(c3)OCO4)c(C(F)(F)F)nn2-c2ncccn2)cc(OC)c1OC [Example 1-27] | 100 | 3.82** | 100 | 100 | 100 | – | 100 | 80 | – | –
COc1nccnc1-n1nc(C(F)(F)C(F)F)c(-c2cc(Cl)cc(C(F)(F)F)c2)c1N=Cc1ccccc1 [Example 2-11] | 100 | 5.37** | 90 | 100 | 90 | – | – | 90 | – | –
COc1nccnc1-n1nc(C(F)(F)F)c(-c2cc(Cl)c3c(c2)OCO3)c1N=Cc1ccc(Cl)cc1 [Example 2-14] | 100 | 5.1** | 100 | 100 | 100 | – | – | 90 | – | –
COc1nccnc1-n1nc(C(F)(F)F)c(-c2cc(Cl)c3c(c2)OCO3)c1N=Cc1ccccc1 [Example 2-6] | 100 | 4.58** | 100 | 100 | 100 | – | – | – | – | –
CC(C)O/C=N/c1c(-c2cc(Cl)cc(C(F)(F)F)c2)c(C(F)(F)F)nn1-c1ncccn1 [Example 1-13, isopropyl {4-[3-chloro-5-(trifluoromethyl)phenyl]-1-(pyrimidin-2-yl)-3-(trifluoromethyl)-1H-pyrazol-5-yl}imidoformate] | 100 | – | – | 100 | 95 | 100 | 100 | – | 100 | 4.88
CCOC=Nc1c(-c2cc(Cl)c3c(c2)OCO3)c(C(F)(F)F)nn1-c1ncccn1 [Example 1-33] | 100 | 3.49** | 100 | 100 | 100 | 100 | 100 | – | – | –
FC(F)C(F)(F)c1nn(-c2ncccn2)c(N=Cc2ccccc2)c1-c1cc(Cl)cc(C(F)(F)F)c1 [Example 1-19] | 100 | 4.86** | – | 100 | 100 | 100 | 100 | 100 | – | –
COc1cc(C=Nc2c(-c3cc(Cl)cc(C(F)(F)F)c3)c(C(F)(F)F)nn2-c2nccnc2OC)cc(OC)c1OC [Example 2-16] | 100 | 5.35** | 100 | 100 | – | – | – | 90 | – | –
COc1cc(C=Nc2c(-c3cc(Cl)cc(C(F)(F)F)c3)c(C(F)(F)F)nn2-c2ncccn2)cc(OC)c1OC [Example 1-28] | 100 | 4.85** | – | 100 | 95 | 83 | 100 | 100 | – | –
COc1ccc(C=Nc2c(-c3cc(Cl)c4c(c3)OCO4)c(C(F)(F)C(F)F)nn2-c2ncccn2)cc1 [Example 1-23] | 100 | 3.85** | 100 | 100 | 100 | 100 | 100 | – | – | –
COc1ccc(C=Nc2c(-c3cc(Cl)c4c(c3)OCO4)c(C(F)(F)F)nn2-c2ncccn2)cc1 [Example 1-26] | 100 | 3.97** | 100 | 100 | 100 | 100 | 100 | – | – | –
COc1nccnc1-n1nc(C(F)(F)F)c(-c2cc(Cl)cc(C(F)(F)F)c2)c1N=Cc1ccc(Cl)cc1 [Example 2-7] | 100 | 6.01** | 100 | 100 | 90 | – | – | 90 | – | –
